Data on 11 molecules can be found in publication PMC4291348, “A Continuous Enzyme-Coupled Assay for Triphosphohydrolase Activity of HIV-1 Restriction Factor SAMHD1” (Antimicrobial Agents and Chemotherapy, 2014).

As usually defined, the Ki is a measure of affinity in units of concentration, obtained from inhibition or displacement. A word on the EC50: it is the concentration needed to bring the measured effect to its halfway point. Low readings indicate an effect from little substance, high ones a need for much substance.

Molecules are shown by their SMILES. “And” between values parts separate entries of the source, which are not always exact repeats. Identical values can stand only once. “Also recorded” adds a separate entry of the source.

The subject of test [1] is T1, SAMHD1.
T1 construct: The catalytic domain of SAMHD1 (residues 115 to 626) was expressed and purified as previously described; made in house
The note with it: cited from earlier work; for Hydrolytic activity of SAMHD1 on the compound: in vitro.

Test [2] deals with HIV-1. Details: method as in PMID 24867973, PMID 23744077, PMID 24913159. The note with it: monocyte-derived macrophages and activated CD4+ T cells; cited from earlier work.
Test [3] deals with T2, SAMHD1 (residues 115 to 626) (Homo sapiens, UniProt Q9Y3Z3).
T2 construct: The catalytic domain of SAMHD1 (residues 115 to 626) was expressed and purified as previously described; made in house
Put plainly: Continuous enzyme-coupled (Ppx1 / MDCC-PBP) real-time assay of SAMHD1 triphosphohydrolase activity. The test is classed as biochemical. The note with it: for KA, apparent dissociation constant for activator binding (activator concentration for half-maximal hydrolysis of TTP substrate): TTP substrate 1 mM, activator varied; for Inhibitory effect on steady-state TTP hydrolysis by GTP-activated SAMHD1 (in words): increasing amounts of compound. The procedure: The steady-state kinetics of SAMHD1 were determined by a coupled-enzyme assay using Ppx1 and a fluorescent phosphate biosensor, MDCC-PBP. The reactions were set up in 20-μl volumes in 384-well low-protein-binding microplates (Corning, USA), and the time-dependent fluorescence signal was measured using a Tecan Saffire^2 multiwell plate reader (Männedorf, Switzerland). Solutions containing SAMHD1 (residues 115 to 626), Ppx1, MDCC-PBP, an activator, and an inhibitor (if present) were incubated for 5 min at 25°C before the reaction was initiated by the addition of the substrate. The final concentrations were 100 nM SAMHD1, 10 nM Ppx1, and 40 μM MDCC-PBP. Depending on the experiment, the concentration of the substrate, the activator, or the inhibitor varied while the substrate and/or the activator was held constant at 1 mM and 0.2 mM, respectively. The fluorescence intensity was recorded at 430 nm for excitation and 465 nm for emission wavelengths, with a 7-nm slit width, at 8- to 10-s time intervals over a period of 10 to 30 min. The standard curves were obtained by incubating 40 μM MDCC-PBP with different concentrations of phosphate (Pi) and measuring the fluorescence, as discussed above. The fluorescence response was linear and in the range of 0 to 20 μM Pi.
The steady-state rates were obtained from the time courses of Pi formation by linear regression of the data points in the linear phase of the reaction. Rates were divided by the SAMHD1 concentration and were plotted versus the activator, substrate, or inhibitor concentration. Apparent dissociation constants for the activator (KA) or the substrate binding (KS) and the catalytic constant (kcat) were determined by nonlinear least-squares fitting using either a hyperbolic or a Hill-function equation in the software package GraFit 7.0.3 (Erithacus Software, United Kingdom) ([22]). […] Data from the three different experiments were analyzed by a least-squares fit using the equation for competitive inhibition. The fits for the three data sets yielded invariant values for the inhibition constants (Ki), supporting a competitive mode of inhibition. All measurements were performed in triplicate in the reaction buffer.

Test [4] relates to T1, SAMHD1. As to the kind of experiment: Malachite green endpoint Ppx1-coupled assay of SAMHD1 (compound screening). Format: biochemical, human. The note with it: for SAMHD1 activation (TTP hydrolysis relative to control GTP): 200 μM compound as activator, 1 mM TTP substrate; for SAMHD1 inhibition (TTP hydrolysis after inclusion of test compound): 200 μM compound, 200 μM GTP, 1 mM TTP; for Hydrolysis by GTP-activated SAMHD1: 1 mM compound plus 200 μM GTP, relative to control TTP. The method, then:
The substrates and compounds were obtained from Jena Biosciences (Jena, Germany) or Thermo Fisher Scientific (Massachusetts, USA). The phosphate concentration was determined using the recommended protocol supplied with the PiColorLock gold phosphate detection system from Innova Biosciences (Cambridge, United Kingdom). Time-course assays were conducted in low-protein-binding 96-well black plates (Corning, USA). The absorbance was measured using a Tecan Safire^2 (Männedorf, Switzerland) plate reader at 630 nm in a fixed-wavelength mode. All the assays were prepared as master mixes immediately before use in a reaction buffer containing 20 mM Tris-HCl, 150 mM NaCl, 5 mM MgCl2, and 2 mM TCEP at pH 7.5.
To determine the triphosphohydrolase activity of SAMHD1, 1 mM substrate and 200 μM allosteric activator were incubated with 5 μM SAMHD1 and 500 nM Ppx1. Fixed-volume samples were removed at predetermined time intervals, and activity was stopped by the addition of 0.25 vol of gold mix (PiColorLock gold) through acidification to a pH of approximately 1.0. After 5 min of incubation at 25°C, 0.1 volume of stabilizer solution (PiColorLock gold) was added, and the mixtures were incubated for a further 30 min at 25°C. The final absorbance was measured as 630 nm by scanning 10 times and averaging data. Each assay was completed in triplicate. The triplicated readings were averaged and normalized by subtracting the average zero-standard optical density. The averaged optical density reading was then compared to a known standard of monophosphate to calculate the concentration of phosphate released.
To determine whether a compound was both a substrate and an allosteric activator of SAMHD1, only 1 mM of the compound of interest was included in the reaction. To test if a compound was a substrate for activated SAMHD1, 1 mM of the compound plus 200 μM GTP was included.

The target in test [5] is T3, Ppx1 (Saccharomyces cerevisiae, UniProt P38698).
T3 construct: StrepII-tag (N); made in house; host or cells: Escherichia coli BL21(DE3)
As to the kind of experiment: Ppx1 triphosphate hydrolysis kinetics and specificity controls. Format: biochemical. The settings on record: recombinant Ppx1 0.3 nM, 25°C, MDCC-PBP. The method, then: Sample controls were used to check for potential Ppx1 activity on the compounds and the reagents. In these assays, the 200 μM compound was incubated in a reaction buffer at 25°C for 30 s with 500 nM Ppx1, either with or without 200 μM triphosphate. The Ppx1 activity was determined by measuring phosphate release with malachite green detection, as described for the coupled assay above.
The initial control experiments were undertaken to assess the suitability of Ppx1 as a coupled enzyme for the assay. The Km for Ppx1 hydrolysis of a polyphosphate ranged from 0.004 to 140 μM ([23]) for P250 to P3 substrates, with kcat values between 180 and 1,500 s^−1 at 37°C, depending on the preparation ([23][–][25]). […] Over the triphosphate substrate concentration range employed in the assays, this rate is substantially higher than that of SAMHD1 dNTP hydrolysis (kcat, ∼1.3 s^−1) and so is suitable as the coupling enzyme in an assay. […]
FIG 2 Kinetics and specificity of Ppx1 hydrolysis. (A) Steady-state kinetics of Ppx1-catalyzed triphosphate cleavage to Pi and PPi were measured using 40 μM MDCC-PBP, 0.3 nM Ppx1, and various concentrations of the triphosphate. The error bars represent the SEM of three independent measurements recorded at each substrate concentration. […] (B) Specificity of Ppx1 hydrolysis was measured using the malachite green endpoint assay. […]

T2 sequence (Q9Y3Z3 115-626): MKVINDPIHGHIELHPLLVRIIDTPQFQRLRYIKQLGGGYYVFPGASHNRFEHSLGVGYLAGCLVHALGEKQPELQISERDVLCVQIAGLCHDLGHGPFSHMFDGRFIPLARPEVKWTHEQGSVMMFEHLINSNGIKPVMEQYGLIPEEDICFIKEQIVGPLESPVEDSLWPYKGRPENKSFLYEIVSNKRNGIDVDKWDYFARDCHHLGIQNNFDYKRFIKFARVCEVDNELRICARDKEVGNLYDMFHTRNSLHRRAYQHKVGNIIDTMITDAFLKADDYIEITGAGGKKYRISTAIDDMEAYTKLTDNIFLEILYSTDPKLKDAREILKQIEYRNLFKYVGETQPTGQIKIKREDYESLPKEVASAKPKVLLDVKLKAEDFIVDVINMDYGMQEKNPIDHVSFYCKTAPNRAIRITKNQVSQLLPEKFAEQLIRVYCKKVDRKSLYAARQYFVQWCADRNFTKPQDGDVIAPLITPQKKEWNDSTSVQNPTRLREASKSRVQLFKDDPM
T3 sequence (P38698 whole entry): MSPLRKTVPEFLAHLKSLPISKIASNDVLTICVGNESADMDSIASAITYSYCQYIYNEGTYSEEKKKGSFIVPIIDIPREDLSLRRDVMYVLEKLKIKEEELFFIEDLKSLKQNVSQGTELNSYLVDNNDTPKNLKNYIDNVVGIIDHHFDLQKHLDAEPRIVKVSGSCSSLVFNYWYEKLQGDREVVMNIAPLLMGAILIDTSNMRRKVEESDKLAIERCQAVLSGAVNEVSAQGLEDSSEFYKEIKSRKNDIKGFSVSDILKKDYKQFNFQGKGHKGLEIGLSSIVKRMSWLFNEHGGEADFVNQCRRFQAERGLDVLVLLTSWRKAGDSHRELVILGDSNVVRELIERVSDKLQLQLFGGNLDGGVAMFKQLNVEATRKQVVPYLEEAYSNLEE

As to `Cc1cn([C@H]2C[C@H](N=[N+]=[N-])[C@@H](CO[P@](=O)(O)O[P@](=O)(O)OP(=O)(O)O)O2)c(=O)[nH]c1=O` [AZT-TP, azidothymidine triphosphate], the “Hydrolytic activity of SAMHD1 on the compound” value (“Hydrolytic activity of SAMHD1” for short) in test [1] is reported as “little or no hydrolytic activity”.
Take `Cc1cn([C@H]2C[C@H](N=[N+]=[N-])[C@@H](CO)O2)c(=O)[nH]c1=O` [AZT]: in test [2], the “Change in efficacy against HIV-1 infection on downregulation of SAMHD1” value is recorded as “large decrease in the efficacy”.
For `Cc1cn([C@H]2C[C@H](O)[C@@H](COP(=O)(O)OP(=O)(O)OP(=O)(O)O)O2)c(=O)[nH]c1=O` [TTP], the “nS, Hill coefficient for substrate binding” value in test [3] (Acyclovir-TP as activator, TTP substrate) is 3.0 ± 0.1. Besides, the “KS, apparent dissociation constant for substrate binding” value is 353 ± 16 µM in test [3] (Acyclovir-TP as activator, TTP substrate, Hill-modified model) and 96.3 ± 1.7 µM in test [3] (GTP activator 0.2 mM, 25°C).
For `Nc1nc2c(ncn2[C@@H]2O[C@H](COP(=O)(O)OP(=O)(O)OP(=O)(O)O)[C@@H](O)[C@H]2O)c(=O)[nH]1` [GTP], the “KA, apparent dissociation constant for activator binding (activator concentration for half-maximal hydrolysis of TTP substrate)” value (from here on “KA, apparent dissociation constant”) in test [3] (25°C) is 32.0 ± 4.2 µM. Besides, in test [1], the “Activation of SAMHD1” value is “activates SAMHD1 as effectively as dGTP”.
In the case of `Nc1nc2c(ncn2COC(CO)COP(=O)(O)OP(=O)(O)OP(=O)(O)O)c(=O)[nH]1` (stereo not drawn) [Ganciclovir-TP, ganciclovir triphosphate], the “Ki, inhibition constant” value in test [3] (GTP activator, TTP substrate (1, 0.3, 0.1 mM), competitive inhibition model) is “No inhibition”. Also, in test [3] (25°C), the “KA, apparent dissociation constant” value is reported as “No activation”. The “KA, apparent dissociation constant” value in test [3] (25°C, listed as ganciclovir-TP) is given as “unable to activate SAMHD1”. For the same molecule, in test [3] (GTP activator, TTP substrate), the “Inhibitory effect on steady-state TTP hydrolysis by GTP-activated SAMHD1 (in words)” value was “no effect”. For the same molecule, in test [4], the “SAMHD1 activation (TTP hydrolysis relative to control GTP)” value is “no activation”, the “SAMHD1 inhibition (TTP hydrolysis after inclusion of test compound)” value (“SAMHD1 inhibition” for short) was “not significantly inhibited” and the “Hydrolysis by GTP-activated SAMHD1” value is given as “refractory to hydrolysis”.
Regarding `Nc1ncnc2c1ncn2[C@H]1C[C@H](O)[C@@H](COP(=O)(O)NP(=O)(O)OP(=O)(O)O)O1` [dApNHpp], in test [3] (GTP activator, TTP substrate), the “Inhibitory effect on steady-state TTP hydrolysis by GTP-activated SAMHD1 (in words)” value is listed as “potent inhibition; also recorded: strong competitive inhibitor”. Further, the Ki in test [3] (read-out: Ki, inhibition constant) came to 1.13 ± 0.07 µM. In test [4], the “SAMHD1 activation (TTP hydrolysis relative to control GTP)” value is listed as “no activation”, the “SAMHD1 inhibition” value is “substantial reduction in TTP hydrolysis to near background levels” and the “Hydrolysis by GTP-activated SAMHD1” value is “refractory to hydrolysis”.
As to `Nc1ccn([C@H]2CS[C@@H](COP(=O)(O)OP(=O)(O)OP(=O)(O)O)O2)c(=O)n1` [3TC-TP, 2′,3′-dideoxy-3′-thiacytidine triphosphate], in test [1], the “Hydrolytic activity of SAMHD1” value was “little or no hydrolytic activity”.
Turning to `O=P(O)(O)OP(=O)(O)OP(=O)(O)O` [triphosphate], the “kcat of Ppx1 triphosphate hydrolysis” value in test [5] was 338 s⁻¹ and 338 ± 31 s⁻¹.
Take `Nc1nc2c(ncn2COCCOP(=O)(O)OP(=O)(O)OP(=O)(O)O)c(=O)[nH]1` [Acyclovir-TP, acyclovir triphosphate]: the EC50 in test [3] is 15.6 ± 2.2 µM. In test [4], the “SAMHD1 inhibition” value was “not significantly inhibited” and the “Hydrolysis by GTP-activated SAMHD1” value is recorded as “refractory to hydrolysis; also recorded: not a substrate”.
Regarding `Nc1nc(Cl)nc2c1ncn2[C@@H]1O[C@H](COP(=O)(O)OP(=O)(O)OP(=O)(O)O)[C@@H](O)[C@@H]1F` [Clofarabine-TP, clofarabine triphosphate], in test [3] (GTP activator 0.2 mM), the “nS, Hill coefficient for substrate binding” value is on record as 2.8 ± 0.1. For the same molecule, in test [3] (GTP activator 0.2 mM, 25°C), the “KS, apparent dissociation constant for substrate binding” value turned out to be 67.6 ± 8.9 µM. Further, in test [4], the “SAMHD1 activation (TTP hydrolysis relative to control GTP)” value is reported as “no activation”, the “SAMHD1 inhibition” value is “diminished only slightly” and the “Hydrolysis by GTP-activated SAMHD1” value is “hydrolyzed at a rate comparable to that of the control TTP; also recorded: hydrolyzed by SAMHD1 at a rate comparable to that of natural dNTP substrates”.
In the case of `Cc1cn([C@H]2C=C[C@@H](COP(=O)(O)OP(=O)(O)OP(=O)(O)O)O2)c(=O)[nH]c1=O` [d4T-TP, 2′,3′-didehydro-2′,3′-dideoxythymidine triphosphate], the “Hydrolytic activity of SAMHD1” value in test [1] is recorded as “little or no hydrolytic activity”.
